Columns and labels:
[1] = system: TGF-β signaling (TGF-β pSMAD, MPC-11); assay: AlphaScreen SureFire SMAD3 (p-Ser423/425) assay, inhibition of TGF-β signaling; assay type: cell-based; conditions: Mus musculus, p-SMAD-3 (Ser423/425) in cell lysate after TGF-β stimulation
Outline: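 Phosphorylation of endogenous SMAD-3 at Ser423/425 was quantified with an AlphaScreen SureFire assay. Cells were exposed to compound for about 10 minutes, stimulated with TGF-β, and lysed in 1× Lysis Buffer. Lysate (5 μL) was combined with Reaction/Activation buffer plus Acceptor beads for 2 hours, then Donor beads for 1½ hours, and read on a plate reader.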

[2] = system: GDF8 signaling (GDF pSMAD, MPC11); assay: AlphaScreen SureFire SMAD3 (p-Ser423/425) assay, inhibition of GDF8 signaling; assay type: cell-based; conditions: Mus musculus, MPC-11, p-SMAD-3 (Ser423/425) in cell lysate after GDF8 stimulation

Compound | IC50 [1] | IC50 [2]
Fc1ccc(-c2nn3c(c2-c2ccc4[nH]ncc4c2)CCC3)c(F)c1Cl [Compound 155, 5-(2-(3-Chloro-2,4-difluorophenyl)-5,6-dihydro-4H-pyrrolo[1,2-b]pyrazol-3-yl)-1H-indazole] | 1020 nM | 105 nM
Cc1cccc(-c2nn3c(c2-c2ccc4ncsc4c2)CCC3)c1 [Compound 12, 6-(2-(m-Tolyl)-5,6-dihydro-4H-pyrrolo[1,2-b]pyrazol-3-yl)benzo[d]thiazole] | 117 nM | 46.8 nM
Fc1ccc(-c2nn3c(c2-c2ccc4[nH]ncc4c2)CCC3)c(F)c1 [Compound 91, 5-(2-(2,4-Difluorophenyl)-5,6-dihydro-4H-pyrrolo[1,2-b]pyrazol-3-yl)-1H-indazole] | 840 nM | 262 nM
Cc1cc(-c2nn3c(c2-c2ccc4ncnn4c2)CCC3)ccc1F [Compound 105, 6-(2-(4-Fluoro-3-methylphenyl)-5,6-dihydro-4H-pyrrolo[1,2-b]pyrazol-3-yl)-[1,2,4]triazolo[1,5-a]pyridine] | 112 nM | 34 nM
Fc1cccc(-c2nn3c(c2-c2ccc4nccn4c2)CCC3)c1 [Compound 80, 6-(2-(3-Fluorophenyl)-5,6-dihydro-4H-pyrrolo[1,2-b]pyrazol-3-yl)imidazo[1,2-a]pyridine] | 2980 nM | 760 nM
Fc1ccc(F)c(-c2nn3c(c2-c2ccc4[nH]ncc4c2)CCC3)c1 [Compound 1, 5-(2-(2,5-difluorophenyl)-5,6-dihydro-4H-pyrrolo[1,2-b]pyrazol-3-yl)-1H-indazole] | 2030 nM | 592 nM
Fc1ccc(Cl)cc1-c1nn2c(c1-c1ccc3ncnn3c1)CCC2 [Compound 178, 6-(2-(5-Chloro-2-fluorophenyl)-5,6-dihydro-4H-pyrrolo[1,2-b]pyrazol-3-yl)-[1,2,4]triazolo[1,5-a]pyridine] | 31.1 nM | 13.2 nM
FC(F)(F)c1cccc(-c2nn3c(c2-c2ccc4[nH]ncc4c2)OCC3)c1 [Compound 59, 7-(1H-Indazol-5-yl)-6-(3-trifluoromethylphenyl)-2,3-dihydropyrazolo[5,1-b]oxazole] | 701 nM | 217 nM
FC(F)(F)c1cccc(-c2nn3c(c2-c2ccc4cn[nH]c4c2)OCC3)c1 [Compound 71, 7-(1H-Indazol-6-yl)-6-(3-trifluoromethylphenyl)-2,3-dihydropyrazolo[5,1-b]oxazole] | 852 nM | 179 nM
Cc1cc(-c2nn3c(c2-c2ccc4nccn4c2)CCC3)ccc1F [Compound 20, 6-(2-(4-Fluoro-3-methylphenyl)-5,6-dihydro-4H-pyrrolo[1,2-b]pyrazol-3-yl)imidazo[1,2-a]pyridine] | 366 nM | 121 nM
COc1cnc2ccc(-c3c(-c4cc(F)ccc4F)nn4c3CCC4)cc2n1 [Compound 199, 7-(2-(2,5-difluorophenyl)-5,6-dihydro-4H-pyrrolo[1,2-b]pyrazol-3-yl)-2-methoxyquinoxaline] | 1370 nM | 428 nM
COc1cccc(-c2nn3c(c2-c2ccc4ncsc4c2)CCC3)c1 [Compound 30, 6-(2-(3-Methoxyphenyl)-5,6-dihydro-4H-pyrrolo[1,2-b]pyrazol-3-yl)benzo[d]thiazole] | 264 nM | 48.6 nM
COc1c(F)ccc(-c2nn3c(c2-c2ccc4ncsc4c2)CCC3)c1F [Compound 162, 6-(2-(2,4-Difluoro-3-methoxyphenyl)-5,6-dihydro-4H-pyrrolo[1,2-b]pyrazol-3-yl)benzo[d]thiazole] | 2220 nM | 555 nM
Fc1cc(F)c(-c2nn3c(c2-c2ccc4ncccc4c2)CCC3)cc1F [Compound 117, 6-(2-(2,4,5-Trifluorophenyl)-5,6-dihydro-4H-pyrrolo[1,2-b]pyrazol-3-yl)quinoline] | 1490 nM | 156 nM
COc1cccc(-c2nn3c(c2-c2ccc4nccnc4c2)CCC3)c1 [Compound 56, 6-(2-(3-Methoxyphenyl)-5,6-dihydro-4H-pyrrolo[1,2-b]pyrazol-3-yl)quinoxaline] | 866 nM | 372 nM
Clc1cccc(-c2nn3c(c2-c2ccc4ncccc4c2)CCC3)c1 [Compound 49, 6-(2-(3-Chlorophenyl)-5,6-dihydro-4H-pyrrolo[1,2-b]pyrazol-3-yl)quinoline] | 926 nM | 129 nM
Fc1ccc(-c2nn3c(c2-c2ccc4ncnn4c2)CCC3)c(F)c1 [Compound 111, 6-(2-(2,4-Difluorophenyl)-5,6-dihydro-4H-pyrrolo[1,2-b]pyrazol-3-yl)-[1,2,4]triazolo[1,5-a]pyridine] | 231 nM | 61.3 nM
FC(F)(F)Oc1cccc(-c2nn3c(c2-c2ccc4ncnn4c2)CCC3)c1 [Compound 127, 6-(2-(3-Trifluoromethoxyphenyl)-5,6-dihydro-4H-pyrrolo[1,2-b]pyrazol-3-yl)-[1,2,4]triazolo[1,5-a]pyridine] | 70.8 nM | 36.2 nM

Compound | IC50 [1] | IC50 [2]
Cc1cccc(-c2nn3c(c2-c2ccc4ncccc4c2)OCC3)c1 [Compound 51, 7-(Quinolin-6-yl)-6-(m-tolyl)-2,3-dihydropyrazolo[5,1-b]oxazole] | 2950 nM | 373 nM
COc1c(F)ccc(-c2nn3c(c2-c2ccc4ncnn4c2)CCC3)c1F [Compound 163, 6-(2-(2,4-Difluoro-3-methoxyphenyl)-5,6-dihydro-4H-pyrrolo[1,2-b]pyrazol-3-yl)-[1,2,4]triazolo[1,5-a]pyridine] | 1340 nM | 430 nM
Fc1c(Cl)cccc1-c1nn2c(c1-c1ccc3[nH]ncc3c1)CCC2 [Compound 138, 5-(2-(3-Chloro-2-fluorophenyl)-5,6-dihydro-4H-pyrrolo[1,2-b]pyrazol-3-yl)-1H-indazole] | 1470 nM | 731 nM
Fc1ccc(-c2nn3c(c2-c2ccc4nccnc4c2)CCC3)cc1OC(F)(F)F [Compound 153, 6-(2-(4-Fluoro-3-trifluoromethoxyphenyl)-5,6-dihydro-4H-pyrrolo[1,2-b]pyrazol-3-yl)quinoxaline] | 1780 nM | 551 nM
Cc1cc(-c2nn3c(c2-c2ccc4ncn(C)c4c2)CCC3)ccc1F [Compound 16, 6-(2-(4-Fluoro-3-methylphenyl)-5,6-dihydro-4H-pyrrolo[1,2-b]pyrazol-3-yl)-1-methyl-1H-benzo[d]imidazole] | 132 nM | 65 nM
Cc1cc(-c2nn3c(c2-c2ccc4cn[nH]c4c2)CCC3)ccc1F [Compound 3, 6-(2-(4-Fluoro-3-methylphenyl)-5,6-dihydro-4H-pyrrolo[1,2-b]pyrazol-3-yl)-1H-indazole] | 231 nM | 64.1 nM
Fc1cccc(-c2nn3c(c2-c2ccc4ncnn4c2)CCC3)c1 [Compound 109, 6-(2-(3-Fluorophenyl)-5,6-dihydro-4H-pyrrolo[1,2-b]pyrazol-3-yl)-[1,2,4]triazolo[1,5-a]pyridine] | 927 nM | 132 nM
Cc1cccc(-c2nn3c(c2-c2ccc4nccn4c2)OCC3)c1 [Compound 44, 7-(imidazo[1,2-a]pyridin-6-yl)-6-(m-tolyl)-2,3-dihydropyrazolo[5,1-b]oxazole] | 106 nM | 23.3 nM
Cc1cccc(-c2nn3c(c2-c2ccc4nccnc4c2)CCC3)c1 [Compound 54, 6-(2-(m-Tolyl)-5,6-dihydro-4H-pyrrolo[1,2-b]pyrazol-3-yl)quinoxaline] | 204 nM | 60.2 nM
FC(F)(F)c1cccc(-c2nn3c(c2-c2ccc4[nH]ncc4c2)CCC3)c1 [Compound 31, 5-(2-(3-Trifluoromethylphenyl)-5,6-dihydro-4H-pyrrolo[1,2-b]pyrazol-3-yl)-1H-indazole] | 171 nM | 51 nM
FC(F)(F)c1cccc(-c2nn3c(c2-c2ccc4ncnn4c2)CCC3)c1 [Compound 108, 6-(2-(3-Trifluoromethylphenyl)-5,6-dihydro-4H-pyrrolo[1,2-b]pyrazol-3-yl)-[1,2,4]triazolo[1,5-a]pyridine] | 159 nM | 39.8 nM
Fc1cccc(-c2nn3c(c2-c2ccc4nccnc4c2)CCC3)c1 [Compound 82, 6-(2-(3-Fluorophenyl)-5,6-dihydro-4H-pyrrolo[1,2-b]pyrazol-3-yl)quinoxaline] | 1950 nM | 330 nM
Fc1cc(F)c(-c2nn3c(c2-c2ccc4[nH]ncc4c2)CCC3)cc1F [Compound 112, 5-(2-(2,4,5-Trifluorophenyl)-5,6-dihydro-4H-pyrrolo[1,2-b]pyrazol-3-yl)-1H-indazole] | 816 nM | 137 nM
COc1cccc(-c2nn3c(c2-c2ccc4nccnc4c2)OCC3)c1 [Compound 76, 6-(3-Methoxyphenyl)-7-(quinoxalin-6-yl)-2,3-dihydropyrazolo[5,1-b]oxazole] | 649 nM | 180 nM
Fc1cc(F)c(-c2nn3c(c2-c2ccc4ncnn4c2)CCC3)cc1F [Compound 119, 6-(2-(2,4,5-Trifluorophenyl)-5,6-dihydro-4H-pyrrolo[1,2-b]pyrazol-3-yl)-[1,2,4]triazolo[1,5-a]pyridine] | 141 nM | 30.9 nM
Fc1cc(F)c(-c2nn3c(c2-c2ccc4cn[nH]c4c2)CCC3)cc1Cl [Compound 187, 6-(2-(5-Chloro-2,4-difluorophenyl)-5,6-dihydro-4H-pyrrolo[1,2-b]pyrazol-3-yl)-1H-indazole] | 656 nM | 135 nM
COc1cccc(-c2nn3c(c2-c2ccc4ncn(C)c4c2)CCC3)c1 [Compound 29, 6-(2-(3-Methoxyphenyl)-5,6-dihydro-4H-pyrrolo[1,2-b]pyrazol-3-yl)-1-methyl-1H-benzo[d]imidazole] | 264 nM | 106 nM
Fc1ccc(-c2nn3c(c2-c2ccc4ncsc4c2)CCC3)c(F)c1Cl [Compound 158, 6-(2-(3-Chloro-2,4-difluorophenyl)-5,6-dihydro-4H-pyrrolo[1,2-b]pyrazol-3-yl)benzo[d]thiazole] | 549 nM | 84.2 nM
